In article PMC9496321, “6-Furopyridine Hexamethylene Amiloride Is a Non-Selective P2X7 Receptor Antagonist” (Biomolecules, 2022):
Blank lines part the entries; values can stand above or below the compound they belong to.

Columns and labels:
endogenous hP2X7 = target: T1, endogenous hP2X7 (Homo sapiens, UniProt Q99572); assay: ATP-induced ethidium+ uptake in RPMI8226 multiple myeloma cells (flow cytometry); assay type: cell-based; conditions: any concentration up to 30 μM, 300 μM ATP, RPMI8226 cells
T1 construct: endogenous in cells; host or cells: RPMI8226 cells
T1 sequence (Q99572 1-595): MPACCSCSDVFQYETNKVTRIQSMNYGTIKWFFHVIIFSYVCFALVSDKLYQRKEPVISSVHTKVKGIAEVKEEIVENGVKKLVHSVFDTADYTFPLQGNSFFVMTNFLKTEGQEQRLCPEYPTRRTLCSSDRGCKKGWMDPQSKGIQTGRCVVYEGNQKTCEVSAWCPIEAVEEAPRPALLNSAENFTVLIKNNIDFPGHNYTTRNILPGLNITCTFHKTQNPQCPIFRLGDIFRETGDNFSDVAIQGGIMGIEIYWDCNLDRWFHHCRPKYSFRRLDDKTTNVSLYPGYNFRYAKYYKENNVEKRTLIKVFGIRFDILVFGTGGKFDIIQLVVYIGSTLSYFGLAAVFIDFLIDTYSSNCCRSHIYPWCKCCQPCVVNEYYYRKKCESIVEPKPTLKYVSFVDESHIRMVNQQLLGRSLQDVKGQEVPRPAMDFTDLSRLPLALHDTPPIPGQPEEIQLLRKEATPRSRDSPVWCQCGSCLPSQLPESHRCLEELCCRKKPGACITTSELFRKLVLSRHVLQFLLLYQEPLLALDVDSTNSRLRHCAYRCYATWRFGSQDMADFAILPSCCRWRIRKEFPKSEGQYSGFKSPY

hP2X7 [1] = target: T2, hP2X7 (Homo sapiens, UniProt Q99572); assay: ATP-induced ethidium+ uptake in stably transfected HEK-hP2X7 cells (flow cytometry); assay type: cell-based; conditions: any concentration up to 30 μM, 450 μM ATP, HEK-hP2X7 cells
T2 construct: expressed in transfected cells; host or cells: HEK293 cells, stably transfected (HEK-hP2X7)
T2 sequence (Q99572 1-595): T1 sequence (Q99572 1-595)

P2X7 [2] = target: T3, P2X7 (Homo sapiens, UniProt Q99572); conditions: human leukaemic lymphocytes, cited from earlier work; for inhibition of ATP-induced Na+ fluxes: 40 μM compound
T3 sequence (Q99572 1-595): T1 sequence (Q99572 1-595)

P2X7 [3] = target: T3, P2X7; assay: Plate-based flow cytometric YO-PRO-1 dye uptake compound screen in RPMI8226 cells; assay type: cell-based; set-up: endogenous in cells; host or cells: RPMI8226 cells; conditions: 5 μM compound, 250 μM ATP; also previous studies
Protocol: RPMI8226 cells were washed thrice with low-divalent medium (LDM) (145 mM NaCl, 2 mM KCl, 0.2 mM CaCl2, 13 mM D-glucose and 10 mM HEPES, pH 7.5) and 1 × 10^5 cells were added to each well of a 96-well flat-bottomed plate. Amiloride derivatives, at 10 μM (final concentration 5 μM) or vehicle (DMSO) were added, and plates pre-incubated (37 °C, 15 min). […] Wells were washed twice with LDM (300× g, 5 min) and cells were resuspended in LDM. Data was acquired with an Attune NxT Flow Cytometer an Autosampler (Thermo Fisher Scientific). Mean fluorescent intensity (MFI) of YO-PRO-1^+ uptake was determined using FlowJo.

[4] = system: hP2X7-mediated IL-1β release; assay: Whole blood IL-1β release assay; assay type: cell-based; conditions: 30 μM compound, 6 mM ATP, LPS-primed human whole blood
Protocol: Whole blood IL-1β release assays were conducted as described. Briefly, whole human blood was mixed with an equal volume of serum-free RPMI-1640 medium containing LPS (200 ng/mL), added to a flat-bottom 96-well plate and incubated (37 °C, 95% air/5% CO2, 105 min). Compounds (30 μM) or vehicle (DMSO) were added to respective wells and incubated (37 °C, 95% air/5% CO2, 15 min). […] Plates were centrifuged (700× g, 10 min) with the resulting supernatants collected and stored at −80 °C. hIL-1β concentrations were determined using a Human IL-1β ELISA (Thermo Fisher Scientific) according to the manufacturer’s instructions. Samples above the detection limit (7500 pg/mL) were set at 7500 pg/mL for statistical analysis.

P2X7 [5] = target: T3, P2X7; assay: ATP-induced YO-PRO-1 uptake into human T cells (PBMCs); assay type: cell-based; set-up: Human peripheral blood mononuclear cells (PBMCs) were pre-incubated with DMSO (vehicle) or 30 μM 6-FPHMA; endogenous in cells; host or cells: cryopreserved human PBMCs (CD3+, CD4+, CD8+ T cells), four donors; conditions: 30 μM compound, 1 mM ATP
Protocol: ATP-mediated uptake assays were conducted as described with either ethidium bromide or YO-PRO-1 iodide. Briefly, RPMI8226, HEK-hP2X7, HEK-mP2X7, HEK-cP2X7 or cryopreserved human peripheral blood mononuclear cells (PBMCs) were washed thrice with LDM (300× g, 5 min), resuspended in LDM and 1 × 10^6 cells were added to individual tubes. Cells were pre-incubated in the absence of compound (37 °C, 5 min) or in the presence of compound or vehicle (DMSO) (37 °C, 15 min) as indicated. […] An equal volume of ice-cold Mg^2+ stop solution was added and cells centrifuged (300× g, 5 min). Cells were washed twice in LDM (300× g, 5 min), resuspended and data were collected with an LSR Fortessa X-20 flow cytometer. MFI of ethidium^+ or YO-PRO-1^2+ was determined using FlowJo.

human (h) P2X7 = system: human (h) P2X7; set-up: method as in PMID 9720806; conditions: 10 μM compound, HEK-hP2X7 cells; cited from earlier work
mouse (m) P2X7 = system: mouse (m) P2X7; set-up: method as in PMID 7514597; conditions: 40 μM compound, Xenopus oocytes with mP2X7 mRNA; cited from earlier work
mP2X7 = system: mP2X7; set-up: method as in PMID 11181928; conditions: cited from earlier work
hP2X7 [6] = target: T2, hP2X7; set-up: method as in PMID 11181928; conditions: 16 μM BzATP; cited from earlier work
P2X7 [7] = target: T3, P2X7; set-up: endogenous in cells; conditions: human leukemic B cells, cited from earlier work

inhibition of hP2X7-mediated dye uptake (endogenous hP2X7): did not inhibit | inhibition of hP2X7-mediated dye uptake (hP2X7 [1]): did not inhibit
Compound: N=C(N)NC(=O)c1nc(-c2cc3cnccc3o2)c(N)nc1N [6-FPA, 6-furopyridine-substituted amiloride]

block of hP2X7 in screening assay (P2X7 [3]): blocks hP2X7 relatively poorly
Compound: N=C(N)NC(=O)c1nc(Cl)c(N)nc1N [Amiloride]
inhibition of ATP-mediated Na+ fluxes (P2X7 [2]; 1 mM compound): 50%

Compound: Cc1nc(N=Nc2ccc(S(=O)(=O)O)cc2S(=O)(=O)O)c(COP(=O)(O)O)c(C=O)c1O [PPADS, Pyridoxalphosphate-6-azophenyl-2′,4′-disulfonic acid]
reduction of ATP-induced IL-1β compared to vehicle control [4]: did not alter | reduction of ATP-induced YO-PRO-1 uptake into CD3+ T cells (P2X7 [5]): 85 ± 9% | reduction of ATP-induced YO-PRO-1 uptake into CD4+ T cells (P2X7 [5]): 85 ± 11% | reduction of ATP-induced YO-PRO-1 uptake into CD8+ T cells (P2X7 [5]): 86 ± 7%

Compound: O=C(NCC1(N2CCN(c3ccccc3)CC2)CCOCC1)c1cccnc1Sc1ccccc1 [JNJ-47965567]
reduction of ATP-induced IL-1β compared to vehicle control [4]: 98 ± 1% | reduction of ATP-induced YO-PRO-1 uptake into CD3+ T cells (P2X7 [5]): 79 ± 14% | reduction of ATP-induced YO-PRO-1 uptake into CD4+ T cells (P2X7 [5]): 78 ± 15% | reduction of ATP-induced YO-PRO-1 uptake into CD8+ T cells (P2X7 [5]): 80 ± 11%

Compound: CCN(c1nc(N)c(C(=O)N=C(N)N)nc1Cl)C(C)C [EIPA, 5-(N-ethyl-N-isopropyl) amiloride]
inhibition of ATP-induced Na+ fluxes (P2X7 [2]): 72%

reduction of ATP-induced YO-PRO-1 uptake into CD3+ T cells (P2X7 [5]): 90 ± 8% | reduction of ATP-induced YO-PRO-1 uptake into CD4+ T cells (P2X7 [5]): 83 ± 17% | reduction of ATP-induced YO-PRO-1 uptake into CD8+ T cells (P2X7 [5]): 72 ± 22%
Compound: CCOc1ccc(Nc2ccc(/C(=C3C=C/C(=[N+](/CC)Cc4cccc(S(=O)(=O)[O-])c4)C=C/3C)c3ccc(N(CC)Cc4cccc(S(=O)(=O)O)c4)cc3C)cc2)cc1 [BBG, Brilliant Blue G]
reduction of ATP-induced IL-1β compared to vehicle control [4]: did not alter

Compound: NC(N)=NC(=O)c1nc(Cl)c(N2CCCCCC2)nc1N [HMA, 5-(N,N-hexamethylene) amiloride]
inhibition of ATP-induced Na+ fluxes (P2X7 [2]): 95% | inhibition of BzATP-induced inward currents (human (h) P2X7): 30% | inhibition of ATP- and BzATP-induced currents (mouse (m) P2X7): partially inhibited | effect on mP2X7-mediated dye uptake at low BzATP (mP2X7; 16 μM BzATP): potentiated | potency of inhibition of BzATP-induced uptake, mP2X7 compared to hP2X7 (mP2X7; HEK293 cells): reduced potency | potentiation of dye uptake at low BzATP, hP2X7 (hP2X7 [6]): not observed | inhibition of ATP-induced ethidium+ uptake (P2X7 [7]; 20 μM compound): 50% | concentration required for complete inhibition of ATP-induced ethidium+ uptake (P2X7 [7]): > 100 µM
